Reference: patent publication US9029359B2, “Heteroaryl Btk inhibitors” (Biogen Idec MA, Inc., priority 2009, dated 2015)

Target: T1, BTK (Homo sapiens, UniProt Q06187)
T1 construct: purchased Upstate 14-552
Experiment: In vitro BTK kinase assay: BTK-POLYGAT-LS ASSAY
Assay type: biochemical
Details: ATP 10 uM
Experimental: In vitro BTK kinase assay: BTK-POLYGAT-LS ASSAY. The purpose of the BTK in vitro assay is to determine compound potency against BTK through the measurement of IC50. […] A 24 μL aliquot of a ATP/peptide master mix (final concentration; ATP 10 μM, polyGAT 100 nM) in kinase buffer (10 mM Tris-HCl pH 7.5, 10 mM MgCl2, 200 μM Na3VO4, 5 mM DTT, 0.01% Triton X-100, and 0.2 mg/ml Casein) is added to each well. […] The assay is incubated for 30 minutes before being stopped with 28 μL of a 50 mM EDTA solution. […] The plate is covered and incubated for 45 minutes at room temperature. Time resolved fluorescence (TRF) on Molecular Devices M5 (332 nm excitation; 488 nm emission; 518 nm fluorescein emission) is measured.

T1 sequence (Q06187 whole entry): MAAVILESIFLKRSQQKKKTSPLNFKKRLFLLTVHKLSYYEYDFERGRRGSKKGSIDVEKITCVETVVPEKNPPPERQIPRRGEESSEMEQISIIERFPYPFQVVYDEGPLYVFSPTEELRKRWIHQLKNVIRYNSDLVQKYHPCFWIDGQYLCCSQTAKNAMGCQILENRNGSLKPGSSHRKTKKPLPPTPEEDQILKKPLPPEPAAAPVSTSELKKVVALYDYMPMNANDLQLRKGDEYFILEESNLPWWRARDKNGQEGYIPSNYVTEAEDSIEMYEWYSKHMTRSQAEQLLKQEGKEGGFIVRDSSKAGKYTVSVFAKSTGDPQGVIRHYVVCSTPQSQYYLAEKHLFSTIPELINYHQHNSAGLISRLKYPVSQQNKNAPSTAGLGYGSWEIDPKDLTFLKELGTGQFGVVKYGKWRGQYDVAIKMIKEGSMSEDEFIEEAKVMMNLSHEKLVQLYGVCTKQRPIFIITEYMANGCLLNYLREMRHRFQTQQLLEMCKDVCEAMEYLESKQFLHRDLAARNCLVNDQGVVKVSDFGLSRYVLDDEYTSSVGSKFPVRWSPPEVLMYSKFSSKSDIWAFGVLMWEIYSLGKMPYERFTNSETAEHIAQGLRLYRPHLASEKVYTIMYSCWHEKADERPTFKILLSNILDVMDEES

| SMILES | IC50 [nM] |
| --- | --- |
| O=C(CNC(=O)Nc1ccccc1)NC1CCCN(c2ncnc3[nH]ccc23)C1 (centres unmarked) [Example 2, (N-(1-(7H-pyrrolo[2,3-d]pyrimidin-4-yl)piperidin-3-yl)-2-(3-phenylureido)acetamide)] | 100 to 999 |
| O=C(Nc1ccccc1)C(=O)NC1CCCN(c2ncnc3[nH]ccc23)C1 (centres unmarked) [Example 4] | > 10000 |
| O=C(COc1ccccc1)NC1CCCN(c2ncnc3[nH]ccc23)C1 (centres unmarked) [Example 8, (N-(1-(7H-pyrrolo[2,3-d]pyrimidin-4-yl)piperidin-3-yl)-2-phenoxyacetamide)] | 1000 to 10000 |
| O=C(N[C@@H]1CCCN(c2ncnc3[nH]ccc23)C1)[C@H]1CCc2ccccc2N1 [Example 14, (R)—N—((R)-1-(7H-pyrrolo[2,3-d]pyrimidin-4-yl)piperidin-3-yl)-1,2,3,4-tetrahydroquinoline-2-carboxamide] | 1000 to 10000 |
| O=C(N[C@@H]1CCCN(c2ncnc3[nH]ccc23)C1)[C@@H]1CCc2ccccc2N1 [Example 15, (S)—N—((R)-1-(7H-pyrrolo[2,3-d]pyrimidin-4-yl)piperidin-3-yl)-1,2,3,4-tetrahydroquinoline-2-carboxamide] | 1000 to 10000 |
| CN(CC(=O)NC1CCCN(c2ncnc3[nH]ccc23)C1)c1ccccc1 (centres unmarked) [Example 16, (N-(1-(7H-pyrrolo[2,3-d]pyrimidin-4-yl)piperidin-3-yl)-2-(methyl(phenyl)amino)acetamide)] | 1000 to 10000 |
| O=C(CNc1cccc2c1OC(F)(F)O2)NC1CCCN(c2ncnc3[nH]ccc23)C1 (centres unmarked) [Example 25, (N-(1-(7H-pyrrolo[2,3-d]pyrimidin-4-yl)piperidin-3-yl)-2-(2,2-difluorobenzo[d][1,3]dioxol-4-ylamino)acetamide)] | < 100 |
| NS(=O)(=O)c1cccc(NCC(=O)NC2CCCN(c3ncnc4[nH]ccc34)C2)c1 (centres unmarked) [Example 26, (N-(1-(7H-pyrrolo[2,3-d]pyrimidin-4-yl)piperidin-3-yl)-2-(3-sulfamoylphenylamino)acetamide)] | > 10000 |
| CS(=O)(=O)c1cccc(NCC(=O)NC2CCCN(c3ncnc4[nH]ccc34)C2)c1 (centres unmarked) [Example 28, (N-(1-(7H-pyrrolo[2,3-d]pyrimidin-4-yl)piperidin-3-yl)-2-(3-(methylsulfonyl)phenylamino)acetamide)] | 1000 to 10000 |
| CCc1cccc(CC)c1NCC(=O)NC1CCCN(c2ncnc3[nH]ccc23)C1 (centres unmarked) [Example 30, (N-(1-(7H-pyrrolo[2,3-d]pyrimidin-4-yl)piperidin-3-yl)-2-(2,6-diethylphenylamino)acetamide)] | 1000 to 10000 |
| O=C(CNc1cccc(-c2ccccc2)c1)NC1CCCN(c2ncnc3[nH]ccc23)C1 (centres unmarked) [Example 39, (N-(1-(7H-pyrrolo[2,3-d]pyrimidin-4-yl)piperidin-3-yl)-2-(biphenyl-3-ylamino-)acetamide)] | < 100 |
| O=C(CNc1cccc2c1CCCC2)NC1CCCN(c2ncnc3[nH]ccc23)C1 (centres unmarked) [Example 41, (N-(1-(7H-pyrrolo[2,3-d]pyrimidin-4-yl)piperidin-3-yl)-2-(5,6,7,8-tetrahydronaphthalen-1-ylamino)acetamide)] | < 100 |
| O=C(CNc1cccc(Oc2ccccc2)c1)NC1CCCN(c2ncnc3[nH]ccc23)C1 (centres unmarked) [Example 42, (N-(1-(7H-pyrrolo[2,3-d]pyrimidin-4-yl)piperidin-3-yl)-2-(3-phenoxyphenylamino)acetamide)] | 100 to 999 |
| CN(C)C(=O)c1cccc(NCC(=O)NC2CCCN(c3ncnc4[nH]ccc34)C2)c1 (centres unmarked) [Example 43, (3-(2-(1-(7H-pyrrolo[2,3-d]pyrimidin-4-yl)piperidin-3-ylamino)-2-oxoethylamino)-N,N-dimethylbenzamide)] | 1000 to 10000 |

Results, then the compound that gave them:

| IC50 [nM] | SMILES |
| --- | --- |
| 100 to 999 | O=C(CNC(=O)c1ccccc1)NC1CCCN(c2ncnc3[nH]ccc23)C1 (centres unmarked) [Example 3, (N-(2-(1-(7H-pyrrolo[2,3-d]pyrimidin-4-yl)piperidin-3-ylamino)-2-oxoethyl)benzamide)] |
| 1000 to 10000 | CC(C)(C)c1ccccc1NCC(=O)NC1CCCN(c2ncnc3[nH]ccc23)C1 (centres unmarked) [Example 17, (N-(1-(7H-pyrrolo[2,3-d]pyrimidin-4-yl)piperidin-3-yl)-2-(2-tert-butylphenylamino)acetamide)] |
| 100 to 999 | CC(C)(C)c1cccc(NCC(=O)NC2CCCN(c3ncnc4[nH]ccc34)C2)c1 (centres unmarked) [Example 18, (N-(1-(7H-pyrrolo[2,3-d]pyrimidin-4-yl)piperidin-3-yl)-2-(3-ten-butylphenylamino)acetamide)] |
| > 10000 | CC(C)(C)c1ccc(NCC(=O)NC2CCCN(c3ncnc4[nH]ccc34)C2)cc1 (centres unmarked) [Example 19, (N-(1-(7H-pyrrolo[2,3-d]pyrimidin-4-yl)piperidin-3-yl)-2-(4-tert-butylphenylamino)acetamide)] |
| 100 to 999 | O=C(CNc1ccccc1Cl)NC1CCCN(c2ncnc3[nH]ccc23)C1 (centres unmarked) [Example 20, (N-(1-(7H-pyrrolo[2,3-d]pyrimidin-4-yl)piperidin-3-yl)-2-(2-chlorophenylamino)acetamide)] |
| 100 to 999 | O=C(CNc1ccc(Cl)cc1)NC1CCCN(c2ncnc3[nH]ccc23)C1 (centres unmarked) [Example 22, (N-(1-(7H-pyrrolo[2,3-d]pyrimidin-4-yl)piperidin-3-yl)-2-(4-chlorophenylamino)acetamide)] |
| 100 to 999 | O=C(CNc1ccccc1F)NC1CCCN(c2ncnc3[nH]ccc23)C1 (centres unmarked) [Example 23, (N-(1-(7H-pyrrolo[2,3-d]pyrimidin-4-yl)piperidin-3-yl)-2-(2-fluorophenylamino)acetamide)] |
| 100 to 999 | O=C(CNc1cccc(Cl)c1Cl)NC1CCCN(c2ncnc3[nH]ccc23)C1 (centres unmarked) [Example 27, (N-(1-(7H-pyrrolo[2,3-d]pyrimidin-4-yl)piperidin-3-yl)-2-(2,3-dichlorophenylamino)acetamide)] |
| 100 to 999 | Cc1cccc(NCC(=O)NC2CCCN(c3ncnc4[nH]ccc34)C2)c1 (centres unmarked) [Example 31, (N-(1-(7H-pyrrolo[2,3-d]pyrimidin-4-yl)piperidin-3-yl)-2-(m-tolylamino)acetamide)] |
| 100 to 999 | COc1cccc(NCC(=O)NC2CCCN(c3ncnc4[nH]ccc34)C2)c1 (centres unmarked) [Example 32, (N-(1-(7H-pyrrolo[2,3-d]pyrimidin-4-yl)piperidin-3-yl)-2-(3-methoxyphenylamino)acetamide)] |
| 1000 to 10000 | O=C(CNc1ccc(F)cc1)NC1CCCN(c2ncnc3[nH]ccc23)C1 (centres unmarked) [Example 33, (N-(1-(7H-pyrrolo[2,3-d]pyrimidin-4-yl)piperidin-3-yl)-2-(4-fluorophenylamino)acetamide)] |
| 100 to 999 | O=C(CNc1cc(Cl)ccc1Cl)NC1CCCN(c2ncnc3[nH]ccc23)C1 (centres unmarked) [Example 35, (N-(1-(7H-pyrrolo[2,3-d]pyrimidin-4-yl)piperidin-3-yl)-2-(2,5-dichlorophenylamino)acetamide)] |
| 100 to 999 | COc1ccccc1NCC(=O)NC1CCCN(c2ncnc3[nH]ccc23)C1 (centres unmarked) [Example 37, (N-(1-(7H-pyrrolo[2,3-d]pyrimidin-4-yl)piperidin-3-yl)-2-(2-methoxyphenylamino)acetamide)] |
| < 100 | O=C(CNc1cccc(Br)c1)NC1CCCN(c2ncnc3[nH]ccc23)C1 (centres unmarked) [Example 40, (N-(1-(7H-pyrrolo[2,3-d]pyrimidin-4-yl)piperidin-3-yl)-2-(3-bromophenylamino)acetamide)] |
| < 100 | O=C(CNc1cccc2c1CCC2)NC1CCCN(c2ncnc3[nH]ccc23)C1 (centres unmarked) [Example 45, (N-(1-(7H-pyrrolo[2,3-d]pyrimidin-4-yl)piperidin-3-yl)-2-(2,3-dihydro-1H-inden-4-ylamino)acetamide)] |
